Experimental data taken from patent US20140377340A1, “HLA-DR BINDING PEPTIDES AND THEIR USES” (priority 2007, published 2014).

What was measured:
purified HLA DRB1*0101 = target: T1, purified HLA DRB1*0101 (Homo sapiens, UniProt P01903+P01911, A100R/D57E/F55L/F60I/F76Y/I96L/L162R/M171V/P40L/Q125E/R42F/V115G/Y59C); assay: HLA-DR radioligand binding inhibition assay, DRB1*0101; details: IC50 nM purified HLA DRB1 *0101, purified HLA DRB1*0101
T1 construct: purified from EBV transformed homozygous cell lines or single MHC allele transfected 721.221, C1R, or fibroblast lines; made in house
Description: (§1) Instead, wells of an opaque white 96-well Optiplate (Packard) are coated with 3 μg (100 μl@ 30 μg/ml) of HLA-specific antibody (Ab) that “capture” complexes of radiolabeled MHC and unlabeled peptide transferred from the molecular binding assay plate in 100 μl of 0.05% NP40/PBS. After a 3-hour incubation period, the supernatant is decanted and scintillation fluid (Microscint 20) added. Captured complexes are then measured on a microplate scintillation and luminescence counter (TopCount NXTTM; Packard).
(§2) HLA-DR purification. Fifteen distinct HLA-DR molecules were used in quantitative assays to measure the binding of peptides to solubilized HLA-DR molecules. […] Briefly, columns of inactivated Sepharose CL4B and Protein A Sepharose were used as pre-columns. HLA-DR molecules were captured by passage of lysates over LB3.1 monoclonal antibody (anti-HLA-DRA) columns. Antibody columns were washed with 10 mM Tris-HCL, pH8.0 with 1% (v/v) NP-40, followed by PBS containing 0.4% (w/v) n-octylglucoside.
(§3) Briefly, 1-10 nM of radiolabeled peptide was co-incubated for 2 days at either room temperature or 37° C. with 1 μM to 1 nM purified HLA-DR molecules in the presence of a cocktail of protease inhibitors. Assays were performed at various pH conditions, ranging from pH 4 to pH 7. […] After incubation, the percentage of HLA-DR-bound radioactivity is determined by capturing HLA-DR/peptide complexes on Optiplates (Packard Instruments, Meriden, Conn.) coated with the LB3.1 antibody and determining bound counts per minute using the TopCount microscintillation counter (Packard Instruments).

purified HLA DRB1*0405 = target: T2, purified HLA DRB1*0405 (Homo sapiens, UniProt P01903+P01911, A100R/A169T/D86S/F76Y/I96L/K127E/L162R/M171V/N62H/P40V/Q125Y/R42H/S133A/S149N/S66Y/V115G/V209L/W38E); assay: HLA-DR radioligand binding inhibition assay, DRB1*0405; details: IC50 nM purified HLA DRB1 *0405, purified HLA DRB1*0405
T2 construct: purified from EBV transformed homozygous cell lines or single MHC allele transfected 721.221, C1R, or fibroblast lines; made in house
Description: as §1, §2, §3

purified HLA DRB5*0101 = target: T3, purified HLA DRB5*0101 (Homo sapiens, UniProt P01903+Q30154); assay: HLA-DR radioligand binding inhibition assay, DRB5*0101; details: IC50 nM purified HLA DRB5 *0101, purified HLA DRB5*0101
T3 construct: purified from EBV transformed homozygous cell lines or single MHC allele transfected 721.221, C1R, or fibroblast lines; made in house
Description: as §1, §2, §3

purified HLA DRB1*0401 = target: T4, purified HLA DRB1*0401 (Homo sapiens, UniProt P01903+P01911, A100K/A169T/F76Y/I96L/K127E/L162R/M171V/N62H/P40V/Q125Y/R42H/S133A/S149N/S66Y/V115G/V209L/W38E); assay: HLA-DR radioligand binding inhibition assay, DRB1*0401; details: IC50 nM purified HLA DRB1 *0401, purified HLA DRB1*0401
T4 construct: purified from EBV transformed homozygous cell lines or single MHC allele transfected 721.221, C1R, or fibroblast lines; made in house
Description: as §1, §2, §3

purified HLA DRB1*1101 = target: T5, purified HLA DRB1*1101 (Homo sapiens, UniProt P01903+P01911, A100R/A169T/A87E/I96F/K41T/L162R/M171V/P40S/Q125H/Q178H/Q39Y/Q99D/R42S/S66Y/T262R/V115G/W38E); assay: HLA-DR radioligand binding inhibition assay, DRB1*1101; details: IC50 nM purified HLA DRB1 *1101, purified HLA DRB1*1101
T5 construct: purified from EBV transformed homozygous cell lines or single MHC allele transfected 721.221, C1R, or fibroblast lines; made in house
Description: as §1, §2, §3

purified HLA DRB1*1302 = target: T6, purified HLA DRB1*1302 (Homo sapiens, UniProt P01903+P01911, A100E/A169T/K41T/L162R/M171V/P40S/Q125H/Q178H/Q39Y/Q99D/R42S/S66N/T262R/V115G/W38E/Y61H); assay: HLA-DR radioligand binding inhibition assay, DRB1*1302
T6 construct: purified from EBV transformed homozygous cell lines or single MHC allele transfected 721.221, C1R, or fibroblast lines; made in house
Description: as §1, §2, §3

purified HLA DRB1*0701 = target: T7, purified HLA DRB1*0701 (Homo sapiens, UniProt P01903+P01911, A100R/A102G/A103Q/D57E/D86V/E43K/F76Y/K127E/L162R/M171V/P40G/Q125H/Q99D/R33Q/R42Y/R54Q/S133A/S66F/T210M/V115G/Y107V/Y59L/Y89S); assay: HLA-DR radioligand binding inhibition assay, DRB1*0701; details: IC50 nM purified HLA DRB1 *0701, purified HLA DRB1*0701
T7 construct: purified from EBV transformed homozygous cell lines or single MHC allele transfected 721.221, C1R, or fibroblast lines; made in house
Description: as §1, §2, §3

T5 sequence (P01903 26-254, other chains not shown): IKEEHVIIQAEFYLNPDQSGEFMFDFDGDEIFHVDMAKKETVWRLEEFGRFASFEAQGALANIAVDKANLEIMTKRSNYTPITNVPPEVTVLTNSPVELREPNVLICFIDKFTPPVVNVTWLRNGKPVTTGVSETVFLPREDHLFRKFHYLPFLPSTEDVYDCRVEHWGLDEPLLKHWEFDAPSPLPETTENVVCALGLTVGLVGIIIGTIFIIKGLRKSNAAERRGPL

| IC50 (purified HLA DRB5*0101) | IC50 (purified HLA DRB1*1101) | Compound | also measured |
| --- | --- | --- | --- |
| – | 2130 nM | CC[C@H](C)[C@H](NC(=O)[C@H](CCCNC(=N)N)NC(=O)[C@@H](N)CCSC)C(=O)N[C@@H](CC(C)C)C(=O)N[C@@H](CCCCN)C(=O)N[C@@H](CCC(=O)O)C(=O)N[C@H](C(=O)N[C@@H](CCC(=O)O)C(=O)N[C@@H](CC(C)C)C(=O)N[C@@H](CCCNC(=N)N)C(=O)N[C@@H](CCCCN)C(=O)N[C@H](C(=O)N[C@@H](CCCCN)C(=O)N[C@H](C(=O)N[C@@H](CC(C)C)C(=O)O)C(C)C)C(C)C)[C@@H](C)O [Peptide 9019.0072] | – |
| 3000 nM | – | CSCC[C@H](NC(=O)[C@H](CC(C)C)NC(=O)[C@H](CCC(N)=O)NC(=O)[C@@H](NC(=O)[C@@H](NC(=O)[C@H](CC(C)C)NC(=O)[C@H](CCC(N)=O)NC(=O)[C@@H](NC(=O)[C@@H](N)[C@@H](C)O)C(C)C)C(C)C)[C@@H](C)O)C(=O)N1CCC[C@H]1C(=O)N[C@@H](Cc1ccc(O)cc1)C(=O)NCC(=O)N[C@@H](CS)C(=O)N[C@@H](CC(C)C)C(=O)N[C@@H](CC(C)C)C(=O)O [Peptide 9019.0080] | – |
| 92 nM | – | CC[C@H](C)[C@H](NC(=O)[C@H](CCC(N)=O)NC(=O)[C@H](CCSC)NC(=O)[C@H](CS)NC(=O)[C@H](Cc1c[nH]c2ccccc12)NC(=O)[C@H](CC(N)=O)NC(=O)[C@H](CC(C)C)NC(=O)[C@@H](N)CC(C)C)C(=O)N[C@@H](C)C(=O)N[C@@H](CCCCN)C(=O)NCC(=O)N[C@@H](CCSC)C(=O)N[C@@H](CO)C(=O)N[C@@H](Cc1ccc(O)cc1)C(=O)N[C@@H](CC(C)C)C(=O)O [Peptide 9019.0082] | IC50 (purified HLA DRB1*0701): 380 nM |

Continued, compound first:

| Compound | IC50 (purified HLA DRB5*0101) | IC50 (purified HLA DRB1*1101) | also measured |
| --- | --- | --- | --- |
| CC(C)C[C@H](NC(=O)[C@H](C)NC(=O)[C@H](CC(C)C)NC(=O)[C@@H](N)CC(C)C)C(=O)N[C@@H](CC(C)C)C(=O)N1CCC[C@H]1C(=O)N1CCC[C@H]1C(=O)NCC(=O)N[C@@H](C)C(=O)N[C@@H](C)C(=O)N[C@@H](CO)C(=O)N[C@H](C(=O)N[C@@H](CCC(N)=O)C(=O)N[C@H](C(=O)N[C@@H](CS)C(=O)O)C(C)C)[C@@H](C)O [Peptide 1622.02] | 17 nM | – | IC50 (purified HLA DRB1*0101): 17 nM; IC50 (purified HLA DRB1*0405): > 20000 nM |
| CC[C@H](C)[C@H](NC(=O)[C@H](CC(C)C)NC(=O)[C@H](C)NC(=O)[C@H](CC(C)C)NC(=O)CN)C(=O)N[C@@H](Cc1c[nH]cn1)C(=O)N[C@@H](Cc1c[nH]cn1)C(=O)N[C@@H](CC(N)=O)C(=O)N[C@H](C(=O)N[C@@H](Cc1c[nH]cn1)C(=O)N[C@@H](CC(C)C)C(=O)N[C@@H](CS)C(=O)N[C@@H](Cc1ccccc1)C(=O)N[C@H](C(=O)N[C@@H](Cc1c[nH]cn1)C(=O)O)C(C)C)[C@@H](C)O [Peptide 9019.0058] | – | 2800 nM | IC50 (purified HLA DRB1*0401): 414 nM; IC50 (purified HLA DRB1*1302): 18 nM |
| CC[C@H](C)[C@H](NC(=O)[C@H](CCCCN)NC(=O)[C@H](CCC(N)=O)NC(=O)[C@@H](N)CCC(N)=O)C(=O)N[C@@H](CCCNC(=N)N)C(=O)N[C@@H](CCCCN)C(=O)N[C@@H](Cc1ccc(O)cc1)C(=O)N[C@H](C(=O)N[C@@H](CCSC)C(=O)N[C@@H](CCCNC(=N)N)C(=O)N[C@@H](CCCNC(=N)N)C(=O)N[C@@H](CC(C)C)C(=O)N[C@@H](CC(C)C)C(=O)N[C@@H](CCC(N)=O)C(=O)N[C@@H](CCC(=O)O)C(=O)O)[C@@H](C)O [Peptide 9019.0070] | 340 nM | – | – |
